Reference: PubChem BioAssay (NCI)
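Interpolation was linear, between the two tested concentrations surrounding the appropriate level; five concentrations were tested over 48 hours in 96-well plates. At the GI50, growth is halved. TGI: total growth inhibition.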

How the values were obtained:
Assay in all cases: NCI anticancer screen, dose series, 48 h
U251 CNS = test system: U251 CNS
SN12C renal = test system: SN12C renal
COLO 205 colon = test system: COLO 205 colon
LOX IMVI melanoma = test system: LOX IMVI melanoma
UACC-62 melanoma = test system: UACC-62 melanoma
TK-10 renal = test system: TK-10 renal
OVCAR-5 ovarian = test system: OVCAR-5 ovarian
T-47D breast = test system: T-47D breast
CAKI-1 renal = test system: CAKI-1 renal
786-0 renal = test system: 786-0 renal

Structure (SMILES) | GI50 (U251 CNS) | TGI (U251 CNS) | GI50 (SN12C renal) | TGI (SN12C renal) | GI50 (COLO 205 colon) | TGI (COLO 205 colon) | GI50 (LOX IMVI melanoma) | TGI (LOX IMVI melanoma) | GI50 (UACC-62 melanoma) | TGI (UACC-62 melanoma) | GI50 (TK-10 renal) | TGI (TK-10 renal) | GI50 (OVCAR-5 ovarian) | TGI (OVCAR-5 ovarian) | GI50 (T-47D breast) | TGI (T-47D breast) | GI50 (CAKI-1 renal) | TGI (CAKI-1 renal) | GI50 (786-0 renal) | TGI (786-0 renal)
NC(=O)Nc1ccc2ncnc(Nc3ccc(Cl)cc3)c2c1 | 25.4 µM | > 100 µM | 11.4 µM | > 70.7 µM | 30.6 µM | > 100 µM | 18.1 µM | 57.7 µM | 14.3 µM | 37.3 µM | 1720 nM | 23.4 µM | 15.8 µM | > 95 µM | 10.2 µM | > 85.1 µM | 1.6 µM | 42.2 µM | 19.3 µM | 91.7 µM
CC12C=CC(C)(O1)C1C2c2ccccc2S1(=O)=O (stereo not given) | > 100 µM | > 100 µM | 64.4 µM | > 100 µM | > 100 µM | > 100 µM | 46.6 µM | > 100 µM | > 100 µM | > 100 µM | > 100000 nM | > 100 µM | > 100 µM | > 100 µM | 95.5 µM | > 100 µM | 82 µM | > 100 µM | > 100 µM | > 100 µM
